LD50 data for five compounds are collected here from ChEMBL document CHEMBL3045224, “New insecticidal compounds, communesins C, D and E, from Penicillium expansum link MK-57” (2004).

The test system of the assay is Bombyx mori. In words: Insecticidal activity against po dosed third-instar larvae of Bombyx mori assessed as gram of diet. Type of assay: functional.
For `C/C=C/C=C/C(=O)N1CC[C@@]23c4ccccc4N[C@@H]4N(C=O)c5cccc6c5[C@@]42CCN([C@@H]13)[C@@H]6[C@H]1OC1(C)C` [COMMUNESIN D], the LD50 worked out at 80 mg/kg.
In the case of `C/C=C/C=C/C(=O)N1CC[C@@]23c4ccccc4N[C@@H]4Nc5cccc6c5[C@@]42CCN([C@@H]13)[C@@H]6[C@H]1OC1(C)C` [COMMUNESIN C], the LD50 worked out at 300 mg/kg.
As for `C/C=C/C=C/C(=O)N1CC[C@@]23c4ccccc4N[C@@H]4N(C)c5cccc6c5[C@@]42CCN([C@@H]13)[C@@H]6[C@H]1OC1(C)C` [COMMUNESIN B], the LD50 came to 5 mg/kg.
On to `CC(=O)N1CC[C@@]23c4ccccc4N[C@@H]4N(C)c5cccc6c5[C@@]42CCN([C@@H]6C=C(C)C)[C@@H]13` [COMMUNESIN E], for which the LD50 is 80 mg/kg.
In the case of `CC(=O)N1CC[C@@]23c4ccccc4N[C@@H]4N(C)c5cccc6c5[C@@]42CCN([C@@H]13)[C@@H]6[C@H]1OC1(C)C` [COMMUNESIN A] it was 150 mg/kg.
